Assay results: PubChem BioAssay (NCI)
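1) Cells in 96-well plates. 2) Compound, 48 h, 5 concentrations. 3) Linear interpolation between surrounding doses. 4) Unreached endpoint = highest concentration. TGI: concentration producing complete growth inhibition.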 Where a SMILES comes first, the peptide text is derived from it. [ ]: non-standard residue; d: D form. Ava = NCCCCC(=O)O; Mpa = O=C(O)CCS

Key:
Assay in all cases: NCI anticancer screen, dose series, 48 h
A549 NSCLC = tested on: A549 NSCLC
DU-145 prostate = tested on: DU-145 prostate
MALME-3M melanoma = tested on: MALME-3M melanoma
MDA-MB-231 breast = tested on: MDA-MB-231 breast
NCI-H23 lung = tested on: NCI-H23 lung
NCI-H460 lung = tested on: NCI-H460 lung
NCI-H522 lung = tested on: NCI-H522 lung
SNB-19 CNS = tested on: SNB-19 CNS
TK-10 renal = tested on: TK-10 renal
U251 CNS = tested on: U251 CNS

Structure (SMILES)	TGI (A549 NSCLC)	TGI (DU-145 prostate)	TGI (MALME-3M melanoma)	TGI (MDA-MB-231 breast)	TGI (NCI-H23 lung)	TGI (NCI-H460 lung)	TGI (NCI-H522 lung)	TGI (SNB-19 CNS)	TGI (TK-10 renal)	TGI (U251 CNS)
CC1=C[P+](c2ccccc2)(c2ccccc2)c2ccccc2O1	> 100 µM	> 100 µM	61 µM	21.6 µM	24.1 µM	> 100 µM	17.3 µM	> 100 µM	94.4 µM	> 100 µM
CC(C)(C)OC(=O)NC(CSCc1ccc(C(=O)c2ccccc2)cc1)C(=O)N1CCN(CCCCN2c3ccccc3Sc3cc(N=[N+]=[N-])ccc32)CC1 (stereo not given)	> 100 µM	> 100 µM	> 100 µM	> 100 µM	> 100 µM	> 100 µM	> 100 µM	> 100 µM	> 100 µM	> 100 µM
Cc1nc2c(Cl)cc(Cl)cc2c2c1CCO2	> 100 µM	> 100 µM	> 100 µM	> 100 µM	> 100 µM	> 100 µM	> 100 µM	> 100 µM	> 100 µM	> 100 µM
N=C1OC(CN2CCN(c3ccccc3)CC2)CN1C(=O)Nc1ccccc1 (stereo not given)	> 100 µM	> 100 µM	> 100 µM	> 100 µM	> 100 µM	> 100 µM	> 100 µM	> 100 µM	> 100 µM	> 100 µM
CCCC(=O)OCC1OC(n2cc(F)c(=O)[nH]c2=O)CC1OC(=O)CCC (stereo not given)	> 10 µM	> 2.62 µM	> 10 µM	> 10 µM	5.02 µM	> 10 µM	> 10 µM	> 10 µM	> 10 µM	> 10 µM
CS(=O)(=O)OCCN(CCOS(C)(=O)=O)c1ccc(C=Nc2ccc(-c3csc(Cc4ccccc4)n3)cc2)c(Cl)c1	> 83.7 µM	> 86.5 µM	> 72.8 µM	75.6 µM	70.6 µM	43.4 µM	> 76 µM	> 89.6 µM	> 100 µM	> 83.3 µM
Nc1cc(C2CCCc3c2[nH]c2ccccc32)ccc1O (stereo not given)	> 100 µM	> 100 µM	> 100 µM	> 100 µM	> 100 µM	> 100 µM	> 100 µM	> 100 µM	> 100 µM	> 100 µM
O=C(N/N=C\c1ccc(Cl)cc1)Nc1ccc2ccccc2c1	> 100 µM	> 100 µM	> 100 µM	> 100 µM	> 100 µM	> 100 µM	> 100 µM	> 100 µM	> 100 µM	63.5 µM
O=S1(=O)OCCOS(=O)(=O)C1(F)Cc1ccccc1	> 100 µM	> 100 µM	> 100 µM	> 100 µM	> 100 µM	> 100 µM	> 100 µM	> 100 µM	> 100 µM	> 100 µM
CCN(CC)CCC(=O)/C=C/c1ccc(Cl)c(Cl)c1	> 10 µM	> 10 µM	> 10 µM	> 10 µM	> 10 µM	> 10 µM	3.54 µM	> 10 µM	9.98 µM	> 10 µM
COc1cc2ncnc(NS(=O)(=O)c3cc4ccccc4s3)c2cc1OC	> 100 µM	> 100 µM	> 100 µM	> 100 µM	> 100 µM	> 100 µM	> 100 µM	> 100 µM	> 100 µM	> 100 µM
Nc1cc(OCC2CCCCC2)nc(N)n1	> 100 µM	> 100 µM	> 100 µM	> 100 µM	> 100 µM	> 100 µM	> 100 µM	> 100 µM	> 100 µM	> 100 µM
Cc1cccc2c(=O)c3cccc([C@H](C)C(=O)O)c3oc12	> 100 µM	> 100 µM	> 100 µM	> 100 µM	> 100 µM	> 100 µM	> 100 µM	> 100 µM	> 100 µM	> 100 µM
O=c1cc(NNc2ccccc2)[nH]c(=O)[nH]1	> 100 µM	> 100 µM	34.4 µM	29.3 µM	> 100 µM	98.9 µM	46.2 µM	35.5 µM	> 100 µM	31.9 µM
O=C(COc1cc(=O)oc2ccccc12)c1ccccc1	> 100 µM	> 100 µM	> 100 µM	> 100 µM	65.2 µM	> 100 µM	89.9 µM	48.9 µM	> 100 µM	34.1 µM
C(=N\NC1=NCCCCN1)/c1ccc2ccccc2c1	> 100 µM	> 100 µM	30.4 µM	65.9 µM	> 100 µM	62.9 µM	87.1 µM	> 100 µM	> 100 µM	58.6 µM
Cc1cc2ncn(CC(=O)O)c2cc1C	> 100 µM	> 100 µM	> 100 µM	> 100 µM	> 100 µM	> 100 µM	> 100 µM	> 100 µM	> 100 µM	> 100 µM
Cc1ccc([N+](=O)[O-])cc1S(=O)(=O)Nc1ccc(C2=NN(S(=O)(=O)c3cc([N+](=O)[O-])ccc3C)C(c3cccs3)C2)cc1 (stereo not given)	> 100 µM	> 100 µM	> 100 µM	> 100 µM	59.9 µM	94.6 µM	79.5 µM	> 100 µM	> 100 µM	> 100 µM
CC1OC(NCCNCCNC2OC(C)C(O)C(O)C2O)C(O)C(O)C1O (stereo not given)	> 100 µM	> 100 µM	> 100 µM	> 100 µM	> 100 µM	> 100 µM	> 100 µM	> 100 µM	> 100 µM	> 100 µM
CC1=C(C)C(=O)OC(C(C)(O)C2(O)CC3OC34C3CC(O)C56OC5C=CC(=O)C6(C)C3CCC42C)C1 (stereo not given)	15.5 µM	15.8 µM	3.53 µM	13.1 µM	8.64 µM	4.23 µM	1.97 µM	19.9 µM	7.43 µM	7.34 µM

Structure (SMILES)	TGI (A549 NSCLC)	TGI (DU-145 prostate)	TGI (MALME-3M melanoma)	TGI (MDA-MB-231 breast)	TGI (NCI-H23 lung)	TGI (NCI-H460 lung)	TGI (NCI-H522 lung)	TGI (SNB-19 CNS)	TGI (TK-10 renal)	TGI (U251 CNS)
COc1ccc(-c2c(C#N)c(N)[nH]c(=S)c2C#N)cc1	> 100 µM	> 100 µM	86 µM	> 100 µM	> 100 µM	> 100 µM	63 µM	> 100 µM	> 100 µM	> 100 µM
CCO/N=C\c1ccc2oc(-c3ccccc3)cc(=O)c2c1	17 µM	13.3 µM	43.1 µM	13.1 µM	9.05 µM	4.19 µM	0.265 µM	19.8 µM	34 µM	17.6 µM
CC(NC(=O)CCS)C(=O)NC(C)C(=O)NC(Cc1c[nH]c2ccccc12)C(=O)NC(Cc1c[nH]cn1)C(=O)NC(CO)C(=O)NC(Cc1c[nH]c2ccccc12)C(=O)NCCCCC(=O)NC(C)C(=O)NC(CCC(N)=O)C(=O)NC(CCCCN)C(=O)NC(C)C(=O)NC(CCCNC(=N)N)C(=O)NC(CCCCN)C(N)=O (stereo not given) ([Mpa]AAWHSW[Ava]AQKARK-NH2; configuration not given here)	> 100 µM	> 100 µM	36.9 µM	> 100 µM	> 100 µM	> 100 µM	> 100 µM	> 100 µM	> 100 µM	> 100 µM
CCOC(=O)/C(C(N)=O)=C(\O)C(=O)/C=C(\O)c1ccc(Cl)cc1	> 100 µM	35.8 µM	45.1 µM	32.2 µM	33.6 µM	31.5 µM	34.3 µM	> 100 µM	26 µM	29.1 µM
CCN(CC)Cc1cc(N=Nc2c(O)ccc3c(N=Nc4ccc(O)c(CN(CC)CC)c4)c(O)ccc23)ccc1O	> 23.5 µM	9.55 µM	21.5 µM	4.52 µM	12.7 µM	7.54 µM	10.3 µM	15.6 µM	18.8 µM	15.5 µM
COc1cc(/C=C2\C(=O)N(c3cccc(NC(C)=O)c3)C(c3ccccc3)S2(=O)=O)cc(OC)c1OC (stereo not given)	> 100 µM	> 100 µM	> 100 µM	> 100 µM	> 100 µM	> 100 µM	> 100 µM	> 100 µM	> 100 µM	> 100 µM
CC(C#N)(NO)C(C)(C#N)NO (stereo not given)	> 100 µM	> 100 µM	> 100 µM	> 100 µM	> 100 µM	> 100 µM	> 100 µM	> 100 µM	> 100 µM	> 100 µM
Cc1cn(S(=O)(=O)c2ccccc2)c2c(OCc3ccccc3)cc([N+](=O)[O-])cc12	> 100 µM	> 100 µM	> 100 µM	> 100 µM	> 100 µM	> 100 µM	> 100 µM	> 100 µM	> 100 µM	> 100 µM
Cc1[nH]c(=O)nc(N/N=C/c2c3ccccc3c(Cl)c3ccccc23)c1C(=O)Nc1ccc(Cl)cc1	> 100 µM	> 100 µM	> 100 µM	> 100 µM	> 100 µM	> 100 µM	> 100 µM	> 100 µM	> 100 µM	> 100 µM
O=C(CCCc1cccc2[nH]c3c(c12)CN(Cc1ccccc1)CC3)c1ccc(F)cc1	> 100 µM	> 100 µM	> 100 µM	> 100 µM	> 52.3 µM	> 100 µM	> 91.1 µM	> 100 µM	> 100 µM	> 100 µM
CCOP(=O)(OCC)C(c1ccc(F)cc1)N(C(=O)NC(F)(F)F)c1ccc(F)cc1 (stereo not given)	> 100 µM	> 100 µM	> 100 µM	> 100 µM	> 100 µM	> 100 µM	> 100 µM	> 100 µM	> 100 µM	> 100 µM
COc1c(C(=O)/C(=N/Nc2ccc(C(=O)O)cc2)C(C)=O)c(O)cc2occc12	> 100 µM	> 100 µM	> 100 µM	> 100 µM	> 100 µM	> 100 µM	> 100 µM	> 100 µM	> 100 µM	> 100 µM
COc1ccc(-c2cc(-c3ccc(C)cc3)n(C3OC(COC(C)=O)C(OC(C)=O)C(OC(C)=O)C3OC(C)=O)c(=S)c2C#N)cc1 (stereo not given)	> 100 µM	> 100 µM	> 100 µM	> 100 µM	> 100 µM	> 100 µM	> 100 µM	> 100 µM	> 100 µM	> 100 µM
CC1=NNC(=O)C1C1(C(=O)O)CC(c2c[nH]c3ccccc23)=NC(=S)N1 (stereo not given)	> 100 µM	> 100 µM	74.3 µM	81.7 µM	56.8 µM	50.1 µM	62.6 µM	> 100 µM	> 100 µM	69.8 µM
CN1C/C(=C\c2cccs2)C2=NN(c3ccccc3)C(c3cccs3)C2C1 (stereo not given)	> 100 µM	> 58.2 µM	> 51.1 µM	98.7 µM	> 100 µM	> 100 µM	> 100 µM	> 100 µM	> 100 µM	> 100 µM
CCOC(CBr)OC1C(=O)OCC1(C)C (stereo not given)	> 100 µM	> 100 µM	> 100 µM	> 100 µM	> 100 µM	> 100 µM	> 100 µM	> 100 µM	> 100 µM	> 100 µM
CC(O)C(CO)NC(=O)C1CSSCC(NC(=O)C(N)Cc2ccccc2)C(=O)NC(Cc2ccccc2)C(=O)NC(Cc2c[nH]c3ccccc23)C(=O)NC(CCCCN)C(=O)NC(C(C)O)C(=O)N1 (stereo not given)	> 100 µM	> 100 µM	> 100 µM	> 100 µM	> 100 µM	> 100 µM	> 100 µM	> 100 µM	> 100 µM	> 100 µM
COc1ccc(SCc2cc(OC)ccc2OC)cc1	> 100 µM	> 100 µM	> 100 µM	> 100 µM	> 100 µM	> 100 µM	> 100 µM	> 100 µM	> 100 µM	> 100 µM
COc1ccc2c(c1)/C(=C\c1c(Cl)nc3n1CCS3)C(=O)N2	> 100 µM	72.5 µM	> 100 µM	27.2 µM	72.2 µM	18.9 µM	24.4 µM	> 100 µM	28.1 µM	57.6 µM
CC(=O)C1=C(C)N(c2ccccc2)C2(O)C3=C(C(=O)c4ccccc4C3=O)C(O)=CC12Cl (stereo not given)	> 100 µM	> 100 µM	4.91 µM	> 100 µM	39.9 µM	> 100 µM	5.81 µM	23.5 µM	33.1 µM	50.1 µM
